Molecular target: T1, Bovine liver catalase (CAT) (Bos taurus, UniProt P00432)
T1 sequence (P00432 2-527): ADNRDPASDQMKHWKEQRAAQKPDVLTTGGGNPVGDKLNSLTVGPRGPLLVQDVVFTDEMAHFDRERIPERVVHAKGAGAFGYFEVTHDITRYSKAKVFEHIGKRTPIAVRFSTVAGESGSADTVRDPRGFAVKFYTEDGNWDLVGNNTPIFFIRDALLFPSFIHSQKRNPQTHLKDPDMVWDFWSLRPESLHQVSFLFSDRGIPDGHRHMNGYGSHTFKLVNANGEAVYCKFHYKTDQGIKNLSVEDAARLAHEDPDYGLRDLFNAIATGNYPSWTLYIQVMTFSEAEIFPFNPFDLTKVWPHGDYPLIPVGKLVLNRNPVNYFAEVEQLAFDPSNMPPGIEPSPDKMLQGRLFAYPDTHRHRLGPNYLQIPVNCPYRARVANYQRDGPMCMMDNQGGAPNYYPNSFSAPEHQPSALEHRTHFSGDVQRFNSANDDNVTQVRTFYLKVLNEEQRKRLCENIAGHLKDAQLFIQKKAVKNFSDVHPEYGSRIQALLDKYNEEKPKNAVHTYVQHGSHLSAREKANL
Assay: H2O2 disappearance at […] nm after […] min preincubation with D-Pen
Format: biochemical

IC50: 191 ± 26 µM
Compound: CC(C)(S)[C@@H](N)C(=O)O [D-penicillamine]

Source: article doi:10.1101/2021.09.16.460603v1 (biorxiv, 2021)
